Results from patent US20050267054A1, “Antibacterial compounds with improved pharmacokinetic profiles” (priority 2002, published 2005).
Like-named read-outs stand apart in the source and are kept apart here.

Test: Pharmacokinetic profile, cassette dosing protocol in dog (IV and PO)
Type: in vivo
Details: male beagle dogs, 1 mg/kg; for AUC / clearance / half-life / Cmax / Tmax / Vd: dog, plasma; for clearance: read-out: CLp (IV) plasma clearance (converted); for Vd: male, beagle, iv
Method: The pharmacokinetic profiles of EXAMPLE 20, EXAMPLE 22, EXAMPLE 29 and EXAMPLE 31 were evaluated using cassette dosing protocols in dog. The cassette dosing protocol in dogs combined three test compounds with the reference compound (EXAMPLE 104 of commonly-owned U.S. Pat. No. 5,866,549), each at a dose of 1 mg/kg. The compounds for each cassette were formulated as a solution in an aqueous vehicle containing 10% ethanol and one equivalent hydrochloric acid. Groups of three male beagle dogs received either an intravenous dose (IV) or an oral dose (PO). Sequential blood samples were taken from each animal for 24 hours after dosing. The plasma concentrations of the test compound and reference compounds were simultaneously determined using HPLC-MS/MS following liquid-liquid extraction of the samples. The results are shown in TABLE 2, in which CLp is plasma clearance; T1/2 and Tmax are expressed in hours; Cmax is expressed in μg/mL; AUC is expressed in μg·h/mL; F is percent bioavaibility; and Vc and Vb (volumes of distibution) are expressed in L/Kg.

[1] = intravenous dose, read-out: AUC (IV)
[2] = intravenous dose, read-out: T1/2 (IV) (converted)
[3] = oral dose, read-out: T1/2 (PO) (converted)
[4] = intravenous dose, read-out: Vb (IV) volume of distribution
[5] = intravenous dose, read-out: Vc (IV) volume of distribution

Compound	AUC [1] [ng·h/mL]	clearance (intravenous dose) [mL/min/kg]	half-life [2] [h]	Cmax (oral dose) [ng/mL]	Tmax (oral dose) [h]	AUC (oral dose, read-out: AUC (PO)) [ng·h/mL]	half-life [3] [h]	F (PO) percent bioavaibility (oral dose) [%]	Vd [4] [L/kg]	Vd [5] [L/kg]
CC[C@H]1OC(=O)[C@@](C)(F)C(=O)[C@H](C)[C@@H](O[C@@H]2O[C@H](C)C[C@H](N(C)C)[C@H]2O)C(C)(OC/C=C/c2ccc(-c3nnn(C)n3)s2)C[C@@H](C)C(=O)[C@H](C)[C@H]2NC(=O)O[C@@]21C (stereo in doubt) [EXAMPLE 31, (3aS,4R,7S,9R,10R,11S,13R,15R,15aR)-4-ethyl-7-fluoro-3a,7,9,11,13,15-hexamethyl-11-(((2E)-3-(5-(2-methyl-2H-tetraazol-5-yl)thien-2-yl)prop-2-enyl)oxy)-2,6,8,14-tetraoxotetradecahydro-2H-oxacyclotetradecino(4,3-d) (1,3)-oxazol-10-yl 3,4,6-trideoxy-3-(dimethylamino)-β-D-xylo-hexopyranoside]	16100	1.17	22.9	480	4.5	12600	17.2	81.10	2.3	1.1
CC[C@H]1OC(=O)[C@H](C)C(=O)[C@H](C)[C@@H](O[C@@H]2O[C@H](C)C[C@H](N(C)C)[C@H]2O)C(C)(OCC#Cc2ccc(-c3nnn(C)n3)s2)C[C@@H](C)C(=O)[C@H](C)[C@H]2NC(=O)O[C@@]21C (stereo in doubt) [EXAMPLE 29, (3aS,4R,7R,9R,10R,11S,13R,15R,15aR)-4-ethyl-3a,7,9,11,13,15-hexamethyl-11-((3-(5-(2-methyl-2H-tetraazol-5-yl)thien-2-yl)prop-2-ynyl)oxy)-2,6,8,14-tetraoxotetradecahydro-2H-oxacyclotetradecino(4,3-d) (1,3)-oxazol-10-yl 3,4,6-trideoxy-3-(dimethylamino)-β-D-xylo-hexopyranoside]	–	–	–	–	–	–	–	80.30	1.2	0.9
CC[C@H]1OC(=O)[C@H](C)C(=O)[C@H](C)[C@@H](O[C@@H]2O[C@H](C)C[C@H](N(C)C)[C@H]2O)C(C)(OC/C=C/c2ccc(-c3nnn(C)n3)s2)C[C@@H](C)C(=O)[C@H](C)[C@H]2NC(=O)O[C@@]21C (stereo in doubt) [EXAMPLE 22, (3aS,4R,7R,9R,10R,11S,13R,15R,15aR)-4-ethyl-3a,7,9,11,13,15-hexamethyl-11-(((2E)-3-(5-(2-methyl-2H-tetraazol-5-yl)thien-2-yl)prop-2-enyl)oxy)-2,6,8,14-tetraoxotetradecahydro-2H-oxacyclotetradecino(4,3-d) (1,3)-oxazol-10-yl 3,4,6-trideoxy-3-(dimethylamino)-β-D-xylo-hexopyranoside]	11500	1.5	8.4	490	1.5	6770	7.8	63.00	1.1	0.9
CC[C@H]1OC(=O)[C@@](C)(F)C(=O)[C@H](C)[C@@H](O[C@@H]2O[C@H](C)C[C@H](N(C)C)[C@H]2O)C(C)(OCC#Cc2ccc(-c3nnn(C)n3)s2)C[C@@H](C)C(=O)[C@H](C)[C@H]2NC(=O)O[C@@]21C (stereo in doubt) [EXAMPLE 20, (3aS,4R,7S,9R,10R,11S,13R,15R,15aR)-4-ethyl-7-fluoro-3a,7,9,11,13,15-hexamethyl-11-((3-(5-(2-methyl-2H-tetraazol-5-yl)thien-2-yl)prop-2-ynyl)oxy)-2,6,8,14-tetraoxotetradecahydro-2H-oxacyclotetradecino(4,3-d) (1,3)-oxazol-10-yl 3,4,6-trideoxy-3-(dimethylamino)-β-D-xylo-hexopyranoside]	7290	2.67	14.4	250	2	5140	11.1	73.60	3.1	1.6
